Entries after “also recorded” stand apart in the source; their conditions may differ.
Experiments:
altMnSODreport = assay: Testing of drugs for toxicity with the reporter gene system; format: cell-based; conditions: cells comprising the reporter gene system
Procedure: Drugs are tested alone or in combination in cancerous or diseased cells and in healthy cells. The compounds are added to cells comprising the reporter gene system. The induction of the reporter is characterized in the absence and the presence of the drug(s).
Breast cancer cell line, MDA-MB-435, Her-2/neu over-expressing (ATCC), fibroblast cells lines NIH3T3 and B104, which are NIH3T3 cells transfected with the rat ErbB2/Her2 oncogene, and normal primary cells (Clonetics; rat cardiomyocytes, donated by Kathryn Maschhoff, MD PhD, Neonatology, University of Pennsylvania) are treated with doxorubicin alone and in combination with the rat ErbB2/Her2 17.6.4 monoclonal antibody, which downregulates the human and rat Her2 receptor (Zhang et al., 1999)(Oncogene), and Herceptin™ (Genentech). It is also determined if the Her2 mAbs induces isoMnSOD expression in untransfected cells and cells transfected with altMnSODreport. A dose-response curve is established, using western immunoblot analysis of the isoMnSOD protein and the expression of the reporter construct. A similar analysis is performed for doxorubicin treatment of cells. Both treatments are analyzed for their effects on mtDNA stability by Southern hybridization analysis, induction of lipid peroxidation by immunodetection of HNE-modified proteins, and induction of apoptosis by activation of caspases 9 and 3.

[1] = tested on: adult cardiomyocyte explants; assay: Doxorubicin induction of isoMnSOD expression in adult heart explants (Western Blot); format: cell-based, rat; conditions: 3 days, 0.1 nM to 1.0 μM Doxorubicin, AdvDMEM 2% FBS, FIG. 3
Source text: Adult cardiomyocytes were isolated and purified following the combination of perfusion techniques (Borg et al. Recognition of extracellular matrix components by neonatal and adult cardiac myocytes. Dev Biol. 1984; 104:86-96) and an attachment procedure (Bugaisky L B, Zak R. Differentiation of adult rat cardiac myocytes in cell culture. Circ Res. 1989; 64:493-500) as described by Sil et al. (Sil et al. Myotrophin in human cardiomyopathic heart. Circ Res. 1993; 73:98-108). Briefly, after rats (5 weeks old) were killed by decapitation, the hearts were aseptically excised and residual blood was removed. The heart was perfused in Joklik's medium (containing Joklik's minimal essential medium, 25 mmol/L glutamic acid, 30 mmol/L taurine, and 1 mmol/L adenosine) without recirculation on a modified Langendorff apparatus for approximately 10 minutes at 37° C. The perfusion was then continued for 30 minutes at the same temperature, with recirculation in Joklik's medium containing collagenase type II (100 U/mL). After perfusion, the ventricles were cut into small pieces and tritulated in 0.05% Trypsin/EDTA for 10 min. Cardiac explants were cultured overnight on laminin-coated (20 μg per well) 35-mm six-well plates in medium 199 containing 5% FBS, 5 mM creatine, 2 mM L-carnitine, and 5 mM taurine. […]

isoMnSOD [2] = target: T1, isoMnSOD (Homo sapiens, UniProt P04179); assay: Detection of inhibitors bound to isoMnSOD (immunoprecipitation/western blot); conditions: anti-dopamine or anti-serotonin antibody; FIG. 2A and 2B
T1 sequence (P04179 25-183 isoform P04179-2 limits assumed): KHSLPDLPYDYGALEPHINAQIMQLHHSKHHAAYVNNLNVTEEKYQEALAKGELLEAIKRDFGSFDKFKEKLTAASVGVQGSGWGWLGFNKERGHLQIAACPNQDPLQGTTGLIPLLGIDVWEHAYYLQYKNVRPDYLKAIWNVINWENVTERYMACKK
Procedure: Covalent modification of the MnSOD-Exon3-deleted isoform was measured by a combined immuneprecipitation/western blot analysis. Immunoblots for detecting AA-DA, EPA-DA, DHA-DA, C18:4(ω-3)-DA adducts were performed using anti-dopamine rabbit polyclonal (Chemicon) and anti-serotonin goat polyclonal antibodies (ImmunoStar), respectively. After immunoprecipitating using an antibody against the inhibitor, isoMnSOD was detected as described above.

isoMnSOD [3] = assay: Pro-oxidant activity of isoMnSOD, at least one of the assays provided in the Examples; conditions: according to at least one of the assays provided in the Examples
Procedure: (§1) Each test compound was prepared by mixing 5 μL of a 1 mM test compound stock solution in ethanol with 5 μL of 0.1 M KOH, followed by the addition of 5 ml of TBS for a final concentration of 1 μM test compound. Equal amounts of native protein extracts from pancreatic mitochondria (obtained according to the protocol of Example 5) were loaded in separate wells and resolved in a 7% PAGE gel without SDS, electrotransferred to PVDF and divided into strips. Each PVDF strip was incubated with 1 μM of test compound in TBS for 30 minutes, washed twice in TBS for 20 minutes, and the peroxidative activity of isoMnSOD was measured by incubation of each strip with 1 mM H2O2 in 0.4 ml of the luminol solution contained within the Femtomole chemiluminescence assay kit (Pierce) and exposed to x-ray film (FIG. 4).
Peroxidative assay of native mitochondrial extracts analyzed by the ROS-activity blot.

isoMnSOD [4] = assay: Peroxidative assay of native mitochondrial extracts from compound-treated pancreatic explants (ROS-activity blot); format: cell-based, pig; conditions: pancreatic explant cultured 1 hr at 37° C. with equal volume of 2 μM compound; FIG. 1
Procedure: Recombinant and mammalian detergent extracts of native mitochondrial proteins were separated in a 7% PAGE gel without SDS containing 375 mM Tris pH 8.2 at 100 volts for 1.5 hr. After electrotransfer of proteins to nitrocellulose using transfer buffer without SDS, peroxidative activity was measured directly upon the filter by their incubation with 0.5 ml of the Femtomole luminol solution (Pierce) containing 1 mM H2O2 and exposing to x-ray film or other means of detecting chemiluminescence.
F10 medium was used throughout the procedure. Pancreas (8 grams) from a 3 kilo pig was minced, washed twice, and 1 g of tissue was resuspended in 5 ml of FIO medium. […] Explants were stored frozen at −70° C. Tissue was homogenized in Buffer A at 4° C. and mitochondria was isolated by differential centrifugation and stored frozen at −70° C. Peroxidative assay of native mitochondrial extracts analyzed by the ROS-activity blot.

isoMnSOD [5] = assay: Drug inhibition method: peroxidative activity of isoMnSOD on PVDF strips (ROS-activity blot); conditions: 1 μM test compound for 30 minutes; 1 mM H2O2, luminol chemiluminescence; FIG. 4
Procedure: as §1
All procedures were carried out at 4° C.

binding to isoMnSOD (covalent modification of the MnSOD-Exon3-deleted isoform) (isoMnSOD [2]) | Molecule | expression of altMnSOD report (altMnSODreport) | isoMnSOD expression [1] | pro-oxidant activity of isoMnSOD (isoMnSOD [3]) | mitochondrial peroxidase activity (isoMnSOD [4]) | peroxidative activity of isoMnSOD (isoMnSOD [5])
– | COc1cccc2c1C(=O)c1c(O)c3c(c(O)c1C2=O)C[C@@](O)(C(=O)CO)C[C@@H]3O[C@H]1C[C@H](N)[C@H](O)[C@H](C)O1 [Doxorubicin] | causes an increase in expression of altMnSOD report | induced isoMnSOD expression; also recorded: induces the expression of isoMnSOD | – | – | –
able to bind to isoMnSOD | CC/C=C\C/C=C\C/C=C\C/C=C\C/C=C\C/C=C\CCC(=O)NCCc1ccc(O)c(O)c1 [docosahexaenoyl (DHA)-dopamine, docosahexaenoyl dopamine] | – | – | found to inhibit pro-oxidant activity of isoMnSOD | inhibited the mitochondiral peroxidase activity | inhibit peroxidative activity more significantly than the other compounds
– | CC/C=C\C/C=C\C/C=C\C/C=C\C/C=C\CCCC(=O)NCCc1ccc(O)c(O)c1 [eicosapentaenoyl (EPA)-dopamine, eicosapentaenoyl dopamine] | – | – | found to inhibit pro-oxidant activity of isoMnSOD | did not inhibit peroxidase activity to the same effect | inhibit peroxidative activity more significantly than the other compounds
able to bind to isoMnSOD | C18:4(ω-3)-dopamine | – | – | found to inhibit pro-oxidant activity of isoMnSOD | inhibited the mitochondiral peroxidase activity | inhibit peroxidative activity more significantly than the other compounds

Molecule | binding to isoMnSOD (covalent modification of the MnSOD-Exon3-deleted isoform) (isoMnSOD [2]) | expression of altMnSOD report (altMnSODreport) | isoMnSOD expression [1] | pro-oxidant activity of isoMnSOD (isoMnSOD [3]) | mitochondrial peroxidase activity (isoMnSOD [4]) | peroxidative activity of isoMnSOD (isoMnSOD [5])
CCCCC/C=C\C/C=C\C/C=C\C/C=C\CCCC(=O)NCCc1c[nH]c2ccc(O)cc12 [arachidonoyl-serotonin, arachidonoyl serotonin] | able to bind to isoMnSOD | – | – | found to inhibit pro-oxidant activity of isoMnSOD | inhibited the mitochondiral peroxidase activity | –

From patent publication US8324279B2, “Compositions and methods for inhibiting an isoform of human manganese superoxide dismutase” (MitoTek, LLC, priority 2003, dated 2012)
